Some test systems named below: LOX IMVI melanoma; OVCAR-5 ovarian; NCI-H226 lung; DMS 114 small cell lung; KM20L2 colon; DMS 273 small cell lung; HOP-92 NSCLC; UACC-257 melanoma; HCT-116 colon; SNB-78 CNS; A498 renal; HS 578T breast.
What all share (assay): inhibition of tumour cell growth, NCI panel, 48 h

Several values for one entry are separate records, joined by “and”; a condition that tells them apart may be missing. Identical values can stand only once.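 Values below derive from 48-hour exposures of cells grown in 96-well plates, with endpoints linearly interpolated between the two concentrations bracketing the appropriate inhibition level. Abbreviation: GI50, concentration required for 50% inhibition of growth. The concentration for full growth arrest is given as TGI.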

As for `NC1=NCN(C2OC(CO)C(O)C2O)C(=O)N1` (centres undefined), the TGI in the experiment on LOX IMVI melanoma turned out to be 135 µM; with OVCAR-5 ovarian it was 2150 µM; in the experiment on NCI-H226 lung, 414 µM; in the experiment on DMS 114 small cell lung it was 437 µM; with KM20L2 colon, 1530 µM; with DMS 273 small cell lung, 620 µM. Further, the TGI with HOP-92 NSCLC is 1990 µM; in the experiment on UACC-257 melanoma, 1430 µM; in the experiment with HCT-116 colon, 143 µM; in the experiment on SNB-78 CNS, 1780 µM; in the experiment with A498 renal it was 804 µM; with HS 578T breast, 734 µM.

As for `CNC(=O)OCc1nc(SC)n(C)c1COC(=O)NC`, the TGI in the experiment with LOX IMVI melanoma was 364 µM; in the experiment on OVCAR-5 ovarian it was 451 µM; in the experiment on NCI-H226 lung, 400 µM; with DMS 114 small cell lung, 199 µM; with KM20L2 colon, 482 µM; with DMS 273 small cell lung, 251 µM. Besides, the TGI stood at 376 µM in the experiment on HOP-92 NSCLC; 335 µM in the experiment on UACC-257 melanoma; 372 µM in the experiment on HCT-116 colon; 359 µM in the experiment with SNB-78 CNS; 386 µM in the experiment on A498 renal; 438 µM with HS 578T breast.

As to `COc1ccccc1C(=O)N(Cc1ccccc1)c1ccc(Cl)c(C(=O)OC(C)C)c1`, the TGI is over 100 µM in the experiment with LOX IMVI melanoma; over 100 µM in the experiment with OVCAR-5 ovarian; 58 µM with NCI-H226 lung; 56 µM in the experiment with DMS 114 small cell lung; over 100 µM in the experiment on KM20L2 colon; 37.5 µM in the experiment with DMS 273 small cell lung. Besides, the TGI was over 45.5 µM with HOP-92 NSCLC; over 88.7 µM in the experiment on UACC-257 melanoma; over 100 µM with HCT-116 colon; 78 µM in the experiment with SNB-78 CNS; over 100 µM in the experiment with A498 renal; over 100 µM in the experiment with HS 578T breast.

In the case of `Cc1ccc(OC(=O)N2C/C(=C\c3ccccc3)C(=O)/C(=C/c3ccccc3)C2)cc1`, the TGI with LOX IMVI melanoma was 9.71 µM; with OVCAR-5 ovarian it was over 100 µM; with NCI-H226 lung, over 100 µM; in the experiment with DMS 114 small cell lung, 59.4 µM; in the experiment with KM20L2 colon, over 100 µM; with DMS 273 small cell lung, 18.1 µM. Moreover, the TGI in the experiment with HOP-92 NSCLC is over 100 µM; in the experiment with UACC-257 melanoma, 69.5 µM; in the experiment on HCT-116 colon, 5.28 µM; in the experiment with SNB-78 CNS, 82.3 µM; in the experiment with A498 renal, over 100 µM; with HS 578T breast, 76.5 µM.

In the case of `O=c1[nH]cnc2n[nH]nc12`, the TGI in the experiment on LOX IMVI melanoma was over 49 µM; with OVCAR-5 ovarian it was over 100 µM; in the experiment on NCI-H226 lung, over 66.1 µM; in the experiment on DMS 114 small cell lung, 56.1 µM; in the experiment with KM20L2 colon, over 100 µM; in the experiment on DMS 273 small cell lung, over 100 µM. Besides, the TGI with HOP-92 NSCLC is over 100 µM; in the experiment with UACC-257 melanoma, over 100 µM; in the experiment with HCT-116 colon, 28.3 µM; with SNB-78 CNS, 56.7 µM; in the experiment on A498 renal, over 100 µM; in the experiment with HS 578T breast, over 100 µM. The GI50 in the experiment with HS 578T breast is 6.11 µM.

With `NCCCN=c1ccc2c3c1c(O)c1c(O)ccc(=O)c1c3[nH]n2CCNCCO`, the GI50 in the experiment with LOX IMVI melanoma was 1.53 µM; in the experiment with NCI-H226 lung, 1.05 µM; with HOP-92 NSCLC, 1.84 µM and 0.409 µM; in the experiment with UACC-257 melanoma, 4.32 µM; with HCT-116 colon it was 2.06 µM and 1.46 µM; in the experiment with HS 578T breast it was 1.77 µM. Besides, the TGI in the experiment on LOX IMVI melanoma was 5.8 µM; in the experiment on OVCAR-5 ovarian it was 17.4 µM and 17.2 µM; with NCI-H226 lung, 7.05 µM and 10.7 µM; in the experiment with DMS 114 small cell lung, over 250 µM; in the experiment with KM20L2 colon it was 38.4 µM; with DMS 273 small cell lung, 0.403 µM. For the same compound, the TGI with HOP-92 NSCLC was 10.3 µM and 2.34 µM; with UACC-257 melanoma, 14.1 µM and 105 µM; with HCT-116 colon it was 9.67 µM and 20.2 µM; in the experiment on SNB-78 CNS, 4.15 µM; with A498 renal it was 7.19 µM and 8.57 µM; in the experiment on HS 578T breast it was 4.8 µM.

These data come from PubChem BioAssay (NCI).
